Experimental data as given in patent publication US12582641B2, “Sulfur-containing compound based on glutarimide skeleton and application thereof” (SHANGHAITECH UNIVERSITY, priority 2019, dated 2026).

System: MM.1S cells
Test: Proliferation inhibition (IC50) in MM.1S cells, cell viability assay
Settings: Homo sapiens, MM1.S, 72 h, read-out: IC50 (nM), proliferation inhibitory activity of MM.1S cells (half inhibitory concentration)

Row | Structure (SMILES) | IC50 [nM]
1 | CCN(CC)CCNCCCCCSc1cccc2c1CN(C1CCC(=O)NC1=O)C2=O (stereo not shown) [SIAIS1220035, 3-(4-((5-((2-(diethylamino)ethyl)amino)pentyl)thio)-1-oxoisoindolin-2-yl)piperidine-2,6-dione] | 4.13 ± 1.43
2 | O=C1CCC(N2Cc3c(SCCCCCCCCNC45CC6CC(CC(C6)C4)C5)cccc3C2=O)C(=O)N1 (stereo not shown) [SIAIS1220087, 3-(4-((8-((adamantan-1-yl)amino)octyl)thio)-1-oxoisoindolin-2-yl)piperidine-2,6-dione] | 0.12
3 | O=C1CCC(N2Cc3c(SCCCCCCCN[C@H]4CN5CCC4CC5)cccc3C2=O)C(=O)N1 (stereo partly drawn) [SIAIS1224037, 3-(1-oxo-4-((7-(((R)-quinuclidin-3-yl)amino)heptyl)thio)isoindolin-2-yl)piperidine-2,6-dione] | 14
4 | O=C1CCC(N2Cc3c(SCCCCCN4CCOCC4)cccc3C2=O)C(=O)N1 (stereo not shown) [SIAIS1216061, 3-(4-((5-morpholinopentyl)thio)-1-oxoisoindolin-2-yl)piperidine-2,6-dione] | 2.52 ± 0.22
5 | O=C1CCC(N2Cc3c(SCc4ccc(CN5CCCCCC5)o4)cccc3C2=O)C(=O)N1 (stereo not shown) [SIAIS313135, 3-(4-(((5-(azepan-1-ylmethyl)furan-2-yl)methyl)thio)-1-oxoisoindolin-2-yl)piperidine-2,6-dione] | 2.62 ± 0.94
6 | O=C1CCC(N2Cc3c(SCCCCCCC(=O)N4CCCCC4)cccc3C2=O)C(=O)N1 (stereo not shown) [SIAIS1220115, 3-(1-oxo-4-((7-oxo-7-(piperidin-1-yl)heptyl)thio)isoindolin-2-yl)piperidine-2,6-dione] | 0.05
7 | CCN(CC)CCCCCCCCSc1cccc2c1CN(C1CCC(=O)NC1=O)C2=O (stereo not shown) [SIAIS1216147, 3-(4-((8-(diethylamino)octyl)thio)-1-oxoisoindolin-2-yl)piperidine-2,6-dione] | 0.19 ± 0.04
8 | O=C1CCC(N2Cc3c(SCCCCCCCOC4C5CC6CC(C5)CC4C6)cccc3C2=O)C(=O)N1 (stereo not shown) [SIAIS269159, 3-(4-((7-(adamantan-2-yloxy)heptyl)thio)-1-oxoisoindolin-2-yl)piperidine-2,6-dione] | 0.068
9 | Cc1ccc(NC(=O)NCCCCCCCSc2cccc3c2CN(C2CCC(=O)NC2=O)C3=O)cc1Cl (stereo not shown) [SIAIS269068, 1-(3-chloro-4-methylphenyl)-3-(7-((2-(2,6-dioxopiperidin-3-yl)-1-oxoisoindolin-4-yl)thio)heptyl)urea] | 0.901
10 | O=C1CCC(N2Cc3c(SCCCCCCCCSc4cccc5c4CN(C4CCC(=O)NC4=O)C5=O)cccc3C2=O)C(=O)N1 (stereo not shown) [SIAIS1216137B, 3,3′-((octane-1,8-diylbis(sulfanediyl))bis(1-oxoisoindoline-4,2-diyl))bis(piperidine-2,6-dione)] | 1.41
11 | CC(C)N(CCCCCCCSc1cccc2c1CN(C1CCC(=O)NC1=O)C2=O)C(C)C (stereo not shown) [SIAIS1220107, 3-(4-((7-(diisopropylamino)heptyl)thio)-1-oxoisoindolin-2-yl)piperidine-2,6-dione] | 0.03
12 | CCN(CC)CCCCCCSc1cccc2c1CN(C1CCC(=O)NC1=O)C2=O (stereo not shown) [SIAIS1220029, 3-(4-((6-(diethylamino)hexyl)thio)-1-oxoisoindolin-2-yl)piperidine-2,6-dione] | 1.13
13 | CC(C)N(C(=O)CCCCCCSc1cccc2c1CN(C1CCC(=O)NC1=O)C2=O)C(C)C (stereo not shown) [SIAIS1220117, 7-((2-(2,6-dioxopiperidin-3-yl)-1-oxoisoindolin-4-yl)thio)-N,N-diisopropylheptanamide] | 0.07
14 | CN1CCN(CCCCCCCCSc2cccc3c2CN(C2CCC(=O)NC2=O)C3=O)CC1 (stereo not shown) [SIAIS1220011, 3-(4-((8-(4-methylpiperazin-1-yl)octyl)thio)-1-oxoisoindolin-2-yl)piperidine-2,6-dione] | 0.57 ± 0.21
15 | O=C1CCC(N2Cc3c(SCCCCCCCCN4CCNCC4)cccc3C2=O)C(=O)N1 (stereo not shown) [SIAIS1216145, 3-(1-oxo-4-((8-(piperazin-1-yl)octyl)thio)isoindolin-2-yl)piperidine-2,6-dione] | 3.86 ± 0.87

Other lines, results leading:

Row | IC50 [nM] | Structure (SMILES)
16 | 0.024 ± 0.006 | O=C1CCC(N2Cc3c(SCc4ccc(CCCN5CCCCC5)cc4)cccc3C2=O)C(=O)N1 (stereo not shown) [SIAIS1227043, 3-(1-oxo-4-((4-(3-(piperidin-1-yl)propyl)benzyl)thio)isoindolin-2-yl)piperidine-2,6-dione]
17 | 0.2 ± 0.08 | CC1CC(C)CN(Cc2ccc(CSc3cccc4c3CN(C3CCC(=O)NC3=O)C4=O)cc2)C1 (stereo not shown) [SIAIS1227117, 3-(4-((4-((3,5-dimethylpiperidin-1-yl)methyl)benzyl)thio)-1-oxoisoindolin-2-yl)piperidine-2,6-dione]
18 | 0.005 | O=C1CCC(N2Cc3c(SCc4ccc(CNCC5CCCCC5)cc4)cccc3C2=O)C(=O)N1 (stereo not shown) [SIAIS1222187, 3-(4-((4-(((cyclohexylmethyl)amino)methyl)benzyl)thio)-1-oxoisoindolin-2-yl)piperidine-2,6-dione]
19 | 0.029 | O=C1CCC(N2Cc3c(SCc4ccc(CNCC56CC7CC(CC(C7)C5)C6)cc4)cccc3C2=O)C(=O)N1 (stereo not shown) [SIAIS1222085, 3-(4-((4-(((adamantan-1-ylmethyl)amino)methyl)benzyl)thio)-1-oxoisoindolin-2-yl)piperidine-2,6-dione]
20 | 34.3 | O=C1CCC(N2C(=O)c3cccc(SCCc4ccc(CNC5CCCCC5)cc4)c3C2=O)C(=O)N1 (stereo not shown) [SIAIS1227019, 4-((4-((cyclohexylamino)methyl)phenethyl)thio)-2-(2,6-dioxopiperidin-3-yl)isoindoline-1,3-dione]
21 | 0.006 | O=C1CCC(N2Cc3c(SCCCCCCCNC4CC5(CCC5)C4)cccc3C2=O)C(=O)N1 (stereo not shown) [SIAIS1222077, 3-(1-oxo-4-((7-(spiro[3.3]heptan-2-ylamino)heptyl)thio)isoindolin-2-yl)piperidine-2,6-dione]
22 | 0.004 ± 0.002 | O=C1CCC(N2Cc3c(SCc4ccc(CCN5CCSCC5)cc4)cccc3C2=O)C(=O)N1 (stereo not shown) [SIAIS1227051, 3-(1-oxo-4-((4-(2-thiomorpholinoethyl)benzyl)thio)isoindolin-2-yl)piperidine-2,6-dione]
23 | 1.12 | O=C1CCC(N2C(=O)c3cccc(SCCCc4ccc(CNC5CCCCC5)cc4)c3C2=O)C(=O)N1 (stereo not shown) [SIAIS1227069, 4-((3-(4-((cyclohexylamino)methyl)phenyl)propyl)thio)-2-(2,6-dioxopiperidin-3-yl)isoindoline-1,3-dione]
24 | 0.05 ± 0.01 | CC1(C)CCC(NCc2ccc(CSc3cccc4c3CN(C3CCC(=O)NC3=O)C4=O)cc2)CC1 (stereo not shown) [SIAIS1227105, 3-(4-((4-(((4,4-dimethylcyclohexyl)amino)methyl)benzyl)thio)-1-oxoisoindolin-2-yl)piperidine-2,6-dione]
25 | 0.14 ± 0.04 | O=C1CCC(N2Cc3c(SCCCc4ccc(CN5CCCCC5)cc4)cccc3C2=O)C(=O)N1 (stereo not shown) [SIAIS1227035, 3-(1-oxo-4-((3-(4-(piperidin-1-ylmethyl)phenyl)propyl)thio)isoindolin-2-yl)piperidine-2,6-dione]
26 | 0.113 | O=C1CCC(N2Cc3c(SCc4ccc(CN5CCOCC5)cc4F)cccc3C2=O)C(=O)N1 (stereo not shown) [SIAIS1227181, 3-(4-((2-fluoro-4-(morpholinomethyl)benzyl)thio)-1-oxoisoindolin-2-yl)piperidine-2,6-dione]
27 | 0.095 | O=C1CCC(N2C(=O)c3cccc(SCCCc4ccc(CNC56CC7CC(CC(C7)C5)C6)cc4)c3C2=O)C(=O)N1 (stereo not shown) [SIAIS1227041, 4-((3-(4-(((adamantan-1-yl)amino)methyl)phenyl)propyl)thio)-2-(2,6-dioxopiperidin-3-yl)isoindoline-1,3-dione]
28 | 0.062 | O=C1CCC(N2Cc3c(SCCCCCCCNCC4CCCCC4)cccc3C2=O)C(=O)N1 (stereo not shown) [SIAIS1222199, 3-(4-((7-((cyclohexylmethyl)amino)heptyl)thio)-1-oxoisoindolin-2-yl)piperidine-2,6-dione]
29 | 0.131 | CC(NCCCCCCSc1cccc2c1CN(C1CCC(=O)NC1=O)C2=O)C12CC3CC(CC(C3)C1)C2 (stereo not shown) [SIAIS1222139, 3-(4-((6-((1-(adamantan-1-yl)ethyl)amino)hexyl)thio)-1-oxoisoindolin-2-yl)piperidine-2,6-dione]
30 | 3.41 | O=C1CCC(N2C(=O)c3cccc(SCCc4ccc(CNC56CC7CC(CC(C7)C5)C6)cc4)c3C2=O)C(=O)N1 (stereo not shown) [SIAIS1224151, 4-((4-(((adamantan-1-yl)amino)methyl)phenethyl)thio)-2-(2,6-dioxopiperidin-3-yl)isoindoline-1,3-dione]
31 | 0.11 ± 0.17 | O=C1CCC(N2Cc3c(SCc4cc(Br)c(CNC56CC7CC(CC(C7)C5)C6)cc4Br)cccc3C2=O)C(=O)N1 (stereo not shown) [SIAIS1227143, 3-(4-((4-(((adamantan-1-yl)amino)methyl)-2,5-dibromobenzyl)thio)-1-oxoisoindolin-2-yl)piperidine-2,6-dione]
32 | 0.097 | O=C1CCC(N2Cc3c(SCc4ccc(CNC5CCCCC5)cc4F)cccc3C2=O)C(=O)N1 (stereo not shown) [SIAIS1227177, 3-(4-((4-((cyclohexylamino)methyl)-2-fluorobenzyl)thio)-1-oxoisoindolin-2-yl)piperidine-2,6-dione]
33 | 0.05 | O=C1CCC(N2Cc3c(SCc4ccc(CNC5CC6(CCC6)C5)cc4)cccc3C2=O)C(=O)N1 (stereo not shown) [SIAIS1222159, 3-(1-oxo-4-((4-((spiro[3.3]heptan-2-ylamino)methyl)benzyl)thio)isoindolin-2-yl)piperidine-2,6-dione]
34 | 0.082 | CC1(C)[C@@H]2CC[C@@]1(C)[C@@H](NCCCCCCSc1cccc3c1CN(C1CCC(=O)NC1=O)C3=O)C2 (stereo partly drawn) [SIAIS1221115, 3-(1-oxo-4-((6-(((1R,2S,4R)-1,7,7-trimethylbicyclo[2.2.1]heptan-2-yl)amino)hexyl)thio)isoindolin-2-yl)piperidine-2,6-dione]
35 | 0.1 ± 0.05 | O=C1CCC(N2Cc3c(SCc4ccc(CCN5CCOCC5)cc4)cccc3C2=O)C(=O)N1 (stereo not shown) [SIAIS1227049, 3-(4-((4-(2-morpholinoethyl)benzyl)thio)-1-oxoisoindolin-2-yl)piperidine-2,6-dione]
36 | 1.04 ± 0.21 | O=C1CCC(N2Cc3c(SCc4cc(Br)c(CN5CCCCC5)cc4Br)cccc3C2=O)C(=O)N1 (stereo not shown) [SIAIS1227139, 3-(4-((2,5-dibromo-4-(piperidin-1-ylmethyl)benzyl)thio)-1-oxoisoindolin-2-yl)piperidine-2,6-dione]
37 | 0.285 | CCN(CC)Cc1ccc(CSc2cccc3c2CN(C2CCC(=O)NC2=O)C3=O)cc1 (stereo not shown) [SIAIS1227055, 3-(4-((4-((diethylamino)methyl)benzyl)thio)-1-oxoisoindolin-2-yl)piperidine-2,6-dione]
